# In PMC11133627, “CATH-2-derived antimicrobial peptide inhibits multidrug-resistant Escherichia coli infection in chickens” (Frontiers in Cellular and Infection Microbiology, 2024):
# Ends that are not written are not given here.
# What was measured:
# [1] = tested on: E. coli clinical isolate E14; assay: Drug-sensitivity test (paper disc, inhibition zone); format: cell-based, Escherichia coli; set-up: key to Drug sensitivity of E. coli E14: R: resistant strains; I: intermediate strains; S: sensitive strains; conditions: 6 mm antibiotic paper on LB agar, 1×10^6 CFU/mL, 24h 37°C, inhibition zone diameter
# Method: (§1) E. coli (ATCC 8739) and clinical isolates of E. coli (E1, E9, E12, E14, E16, and E18) were stored at the Animal Biochemical Laboratory of Shanxi Agricultural University and grown in Luria-Bertani (LB) broth as previously reported ([Zhao et al., 2021]). Circular 6 mm paper pieces were prepared with filter paper and autoclaved for sterilization. […] Then, 0.5 mL of antibiotic solution was added to 100 sterilized papers. Subsequently, the paper pieces were fully infiltrated and dried in a vacuum drying oven to produce antibiotic susceptibility papers. The E. coli strain was retrieved from the -20°C freezer and activated by incubating it on LB agar media at 37°C for 24h. Individual colonies were selected and transferred to LB liquid media. Thereafter, the E. coli suspension was obtained by shaking at 37°C and 160 r/min for 18h. The obtained suspension was centrifuged at 5000 r/min for 5min, after which the supernatant was discarded, and the bacteria were resuspended in fresh medium to a concentration of 1×10^6 CFU/mL. Two hundred microliters of the bacterial suspension mentioned above was spread evenly onto LB agar medium. Then, the antibiotic susceptibility papers were placed on the medium surface using sterile tweezers. After 24h of incubation at 37°C, the diameter of the inhibition zone was measured to determine the susceptibility of E. coli to antibiotics.
# E. coli (ATCC 8739) [2] = assay: as above; format: cell-based, Escherichia coli; set-up: key: R: resistant strains; I: intermediate strains; S: sensitive strains; conditions: 6 mm antibiotic paper on LB agar, 1×10^6 CFU/mL, 24h 37°C, inhibition zone diameter
# Method: as §1
# [3] = tested on: E. coli clinical isolate E18; assay: as above; format: cell-based, Escherichia coli; set-up: key: R: resistant strains; I: intermediate strains; S: sensitive strains; conditions: 6 mm antibiotic paper on LB agar, 1×10^6 CFU/mL, 24h 37°C, inhibition zone diameter
# Method: as §1
# [4] = tested on: E. coli clinical isolate E9; assay: as above; format: cell-based, Escherichia coli; set-up: key: R: resistant strains; I: intermediate strains; S: sensitive strains; conditions: 6 mm antibiotic paper on LB agar, 1×10^6 CFU/mL, 24h 37°C, inhibition zone diameter
# Method: as §1
# [5] = tested on: E. coli clinical isolate E16; assay: as above; format: cell-based, Escherichia coli; set-up: key to Drug sensitivity of E. coli E16: R: resistant strains; I: intermediate strains; S: sensitive strains; conditions: 6 mm antibiotic paper on LB agar, 1×10^6 CFU/mL, 24h 37°C, inhibition zone diameter
# Method: as §1
# [6] = tested on: E. coli clinical isolate E12; assay: as above; format: cell-based, Escherichia coli; set-up: key to Drug sensitivity of E. coli E12: R: resistant strains; I: intermediate strains; S: sensitive strains; conditions: 6 mm antibiotic paper on LB agar, 1×10^6 CFU/mL, 24h 37°C, inhibition zone diameter
# Method: as §1
# [7] = tested on: 6 E. coli strains (E1, E9, E12, E14, E16, E18); format: cell-based, Escherichia coli; conditions: paper disc test
# Method: as §1
# [8] = tested on: E. coli clinical isolate E1; format: cell-based; set-up: key: R: resistant strains; I: intermediate strains; S: sensitive strains; conditions: 6 mm antibiotic paper on LB agar, 1×10^6 CFU/mL, 24h 37°C, inhibition zone diameter
# Method: as §1
# [9] = tested on: E. coli clinical isolate E1; assay: microbe, parasite or virus in culture; conditions: for MBC against E. coli E1: 50 μL from fully inhibited wells plated on LB agar, colonies counted after 24h 37°C; for MIC against E. coli E1: microbroth dilution, 1×10^6 CFU/mL, 37°C 18h, turbidity
# Method: (§2) The minimum inhibitory concentrations (MICs) of the AMPs were determined using the microbroth dilution technique ([van Harten et al., 2021]). One hundred microliters of bacterial suspension at a concentration of 1×10^6 CFU/mL was pipetted into a 96-well plate. Then, 100 μL of AMP or gentamicin at various concentrations was added, while the bacterial suspension without AMPs and blank medium were used as controls.
# [10] = tested on: E. coli strains (ATCC 8739 and MDR clinical isolates); format: cell-based, Escherichia coli; conditions: ATCC 8739, 18 h
# Method: as §2
# E. coli (ATCC 8739) [11] = assay: microbe, parasite or virus in culture; format: cell-based, Escherichia coli; conditions: for MIC against E. coli ATCC 8739: ATCC 8739, 18 h; for MBC against E. coli ATCC 8739: ATCC 8739, 24 h
# Method: as §2
# [12] = tested on: E. coli clinical isolate E18; assay: microbe, parasite or virus in culture; format: cell-based, Escherichia coli; conditions: for MIC against E. coli E18: clinical isolate E18, 18 h; for MBC against E. coli E18: clinical isolate E18, 24 h
# Method: as §2
# [13] = tested on: E. coli clinical isolate E9; assay: microbe, parasite or virus in culture; format: cell-based, Escherichia coli; conditions: for MIC against E. coli E9: clinical isolate E9, 18 h; for MBC against E. coli E9: clinical isolate E9, 24 h
# Method: as §2
# [14] = tested on: E. coli clinical isolate E14; assay: microbe, parasite or virus in culture; format: cell-based, Escherichia coli; conditions: for MIC against E. coli E14: clinical isolate E14, 18 h; for MBC against E. coli E14: clinical isolate E14, 24 h
# Method: as §2
# [15] = tested on: E. coli clinical isolate E12; assay: microbe, parasite or virus in culture; format: cell-based, Escherichia coli; conditions: for MIC against E. coli E12: clinical isolate E12, 18 h; for MBC against E. coli E12: clinical isolate E12, 24 h
# Method: as §2
# [16] = tested on: E. coli clinical isolate E16; assay: microbe, parasite or virus in culture; format: cell-based, Escherichia coli; conditions: for MIC against E. coli E16: clinical isolate E16, 18 h; for MBC against E. coli E16: clinical isolate E16, 24 h
# Method: as §2
# E. coli (ATCC 8739) [17] = format: cell-based, Escherichia coli; conditions: ATCC 8739, 1 h
# Method: The MICs of the AMPs against E. coli (ATCC 8739) at different temperatures and physiological salt concentrations were evaluated. The thermal stability of the AMPs was assessed by incubating them at a concentration of 500 μg/mL for 1h at 0, 37, and 100°C, using untreated AMPs as a control. The salt ion stability of the AMPs was determined by incubating them at a concentration of 500 μg/mL in solutions of NaCl (150 mM), KCl (4.5 mM), MgCl2 (1 mM), and CaCl2 (2.5 mM) for 1h, using untreated samples as controls. The changes in the MICs of the AMPs were assessed following these experimental procedures.
# E. coli (E16) = assay: Chicken infection with MDR E. coli; format: in vivo
# Method: Except for the blank control group injected with 500 μL of normal saline, the other four groups were injected with 500 μL of 3×10^9 CFU/mL E. coli (E16) into the pectoral muscles. […] Clinical symptoms and were observed and documented for the chickens in each group after infection. After 72h, the chickens in each group were euthanized and examined for internal organ damage. Paraffin sections were prepared for microscopic examination of pathological changes. Under sterile conditions, 1 g samples of heart, liver, and spleen were collected, and each sample was supplemented with 20 mL of sterile PBS. After thorough grinding, the sample was diluted to the appropriate multiple, and 100 μL of the diluent was spread onto LB agar medium. The plates were incubated for 24h, after which the colonies were counted.
Molecule,Drug sensitivity of E. coli E14 [1],Drug sensitivity of E. coli ATCC 8739 (E. coli (ATCC 8739) [2]),Drug sensitivity of E. coli E18 [3],Drug sensitivity of E. coli E9 [4],Drug sensitivity of E. coli E16 [5],Drug sensitivity of E. coli E12 [6],Resistance of the 6 clinical E. coli strains (in words) [7],Drug sensitivity of E. coli E1 [8],MBC against E. coli E1 [9] [µg/mL],MIC against E. coli E1 [9] [µg/mL],MIC range over E. coli strains [10] [µg/mL],MIC against E. coli ATCC 8739 (E. coli (ATCC 8739) [11]) [µg/mL],MBC against E. coli ATCC 8739 (E. coli (ATCC 8739) [11]) [µg/mL],MIC against E. coli E18 [12] [µg/mL],MBC against E. coli E18 [12] [µg/mL],MIC against E. coli E9 [13] [µg/mL],MBC against E. coli E9 [13] [µg/mL],MIC against E. coli E14 [14] [µg/mL],MBC against E. coli E14 [14] [µg/mL],MIC against E. coli E12 [15] [µg/mL],further results
penicillin,R,S,R,R,R,R,resistant,R,–,–,–,–,–,–,–,–,–,–,–,–,–
CS(=O)(=O)c1ccc([C@@H](O)[C@@H](CF)NC(=O)C(Cl)Cl)cc1 [florfenicol],R,S,R,R,R,R,resistant,R,–,–,–,–,–,–,–,–,–,–,–,–,–
RFGRFLRKIRRFIPK [C2-1],–,–,–,–,–,–,–,–,16,16,0.5 to 16,2,4,2,4,0.5,1,16,16,1,"MBC against E. coli E12 [15]: 1 µg/mL; MIC against E. coli E16 [16]: 16 µg/mL; MBC against E. coli E16 [16]: 64 µg/mL; MIC against E. coli (ATCC 8739), Salt Stability CaCl2 (2.5 mM) (E. coli (ATCC 8739) [17]): 8 µg/mL; MIC against E. coli (ATCC 8739), Salt Stability KCl (4.5 mM) (E. coli (ATCC 8739) [17]): 2 µg/mL; MIC against E. coli (ATCC 8739), Salt Stability MgCl2 (1 mM) (E. coli (ATCC 8739) [17]): 2 µg/mL; MIC against E. coli (ATCC 8739), Salt Stability NaCl (150 mM) (E. coli (ATCC 8739) [17]): 0.5 µg/mL; MIC against E. coli (ATCC 8739), Thermal Stability 0°C (E. coli (ATCC 8739) [17]): 2 µg/mL; MIC against E. coli (ATCC 8739), Thermal Stability 37°C (E. coli (ATCC 8739) [17]): 2 µg/mL; MIC against E. coli (ATCC 8739), Thermal Stability 100°C (E. coli (ATCC 8739) [17]): 2 µg/mL"
CCN1CCN(c2cc3c(cc2F)c(=O)c(C(=O)O)cn3C2CC2)CC1 [enrofloxacin],R,S,R,R,R,R,–,R,–,–,–,–,–,–,–,–,–,–,–,–,"3-day mortality rate (E. coli (E16); 200 μg/mL, 500 μL into pectoral muscle 4h after 1.5×10^9 CFU E16): 50%; Survival rate compared with untreated group (in words) (E. coli (E16); 3 days): no difference in survival rate; Bacterial loads in the heart, liver and spleen (in words) (E. coli (E16); after 3 days of infection, vs infected untreated): affected only the heart bacterial load"
RFGRFLRKIRRMRLK [C2-2],–,–,–,–,–,–,–,–,8,4,2 to 8,8,8,4,4,2,2,8,8,2,"MBC range over E. coli strains [10]: 2 to 8 µg/mL; MBC against E. coli E12 [15]: 2 µg/mL; MIC against E. coli E16 [16]: 8 µg/mL; MBC against E. coli E16 [16]: 8 µg/mL; MIC against E. coli (ATCC 8739), Salt Stability CaCl2 (2.5 mM) (E. coli (ATCC 8739) [17]): 4 µg/mL; MIC against E. coli (ATCC 8739), Salt Stability KCl (4.5 mM) (E. coli (ATCC 8739) [17]): 0.5 µg/mL; MIC against E. coli (ATCC 8739), Salt Stability MgCl2 (1 mM) (E. coli (ATCC 8739) [17]): 0.5 µg/mL; MIC against E. coli (ATCC 8739), Salt Stability NaCl (150 mM) (E. coli (ATCC 8739) [17]): 0.5 µg/mL; MIC against E. coli (ATCC 8739), Thermal Stability 0°C (E. coli (ATCC 8739) [17]): 8 µg/mL; MIC against E. coli (ATCC 8739), Thermal Stability 37°C (E. coli (ATCC 8739) [17]): 8 µg/mL; MIC against E. coli (ATCC 8739), Thermal Stability 100°C (E. coli (ATCC 8739) [17]): 8 µg/mL"
